Experimental data reported in PMC2424174, “Suppression of Tumor Growth and Angiogenesis by a Specific Antagonist of the Cell-Surface Expressed Nucleolin” (PLoS ONE, 2008).

Experiments:
HUVECs = experiment: FACScan competition of HB-19/Btn binding to HUVECs; set-up: species or system human; details: 1 µM HB-19/Btn, 4 °C, competitor 50 µM
Experimental: Figure 3 Specific binding and entry of HB-19 in endothelial cells. (A) HB-19/Btn forms a stable complex with nucleolin expressed on the surface of HUVECs. Cells were incubated (45 min, 20°C) with 0, 1, 2, 4, 8 and 12 µM of HB-19/Btn before preparation of surface/cytoplasmic and nuclear extracts and recovery of surface nucleolin from the surface/cytoplasmic extracts as in Figure 2A. Material extracted from 2×10^7 and 2×10^6 cells was analyzed in panels Surface and Surface/Cytoplasm or Nucleus, respectively. Immunoblotting was with the anti-nucleolin mAb D3. (B) The specific binding of HB-19/Btn to HUVECs. The binding of 1 µM HB-19/Btn was studied at 4 °C by FACScan analysis. To show the specificity of binding, the reaction was carried out in the absence or presence of 50 µM HB-19, F3, or 9Arg peptides. The ordinate gives the relative cell number, whereas the abscissa gives the relative fluorescence intensity. (C) HB-19 entry in HUVECs. Cells were incubated with 5 µM of HB-19/Btn (1 hour, 37°C) before fixation in PFA (for surface binding) or PFA-Triton (for entry), respectively. Cells were then successively incubated with rabbit anti-biotin antibodies and goat Texas Red-conjugated anti-rabbit IgG, and processed for confocal microscopy. The scans of cells toward the middle cell layer are presented (with the DAPI stained nuclei).

PC3 cells = experiment: Colony formation in soft agar, PC3; type: cell-based, human; details: 5 µM HB-19, PC3
Experimental: Figure 4 HB-19 inhibits colony formation in soft agar by tumor cell lines. (A) MDA-MB-231 cells in culture medium were seeded in triplicate in the absence (histogram C) or presence of 0.1, 0.5 and 1 of µM HB-19, or 0.1 µM of the anti-nucleolin mAb MS-3 or control IgG, or 10 µM bisphosphonate (BisP). (B) Various tumor cell lines (as indicated) in culture medium were seeded in triplicate in the absence (histogram Control) or presence of 5 µM HB-19. After 10–21 days, colonies with diameters greater than 50 µm were scored as positive. Statistical significance: *0.01<p<[…], **p<0.01, ***p<0.001.
Carcinoma cells (2×10^4) were mixed in 0.35% top agar, diluted in complete medium (DMEM containing 10% FBS) in the absence or presence of HB-19, and plated onto 0.8% bottom agar into 12-well plates. Cells were treated twice a week during 10 to 21 days. Colonies with diameters greater than 50 µm were scored as positive using a phase contrast microscope equipped with a measuring grid at magnification 100× [45]. The number of colonies was determined by analyzing 5 fields/well from 3 wells and the test was repeated at least twice.

MDA-MB-231 cells = experiment: BrdU incorporation and cell cycle analysis; type: cell-based, human; details: 10 µM HB-19, 48 hours, 10% FBS, compared to untreated cells
Experimental: Figure 5 Cell cycle perturbations induced by HB-19 treatment. (A) Analysis of cell cycle parameters in HB-19 treated cells. MDA-MB-231 cells were cultured for 48 hours in medium without FBS (starvation) or in medium containing 10% FBS supplemented or not with 10 µM HB-19. DNA synthesis was quantified after BrdU incorporation and staining with anti-BrdU antibody and 7-AAD, by FACScan analysis. The histograms indicate the relative amount of cells in G1, S and G2/M cell phases. […] Serum starved MDA-MB-231 cells were stimulated with 10% FBS in the absence or presence of 2, 5, and 10 µM of HB-19. Five minutes after serum stimulation, cells were lysed directly in electrophoresis sample buffer and processed for immunoblotting using anti-phospho-p42/44 ERK1/2 and anti-p42/44 ERK antibodies. NS stands for non-stimulated cells.
Cell cycle analysis was performed using the FITC-BrdU flow kit (#559619) kit from BD Bioscience Pharmingen, according to the manufacturer's instructions. Briefly, MDA-MB-231 cells (1×10^5) were seeded in 12-multiwell and incubated 24 hours for adhesion. Cells were treated with HB-19 for 48 hours and labeled with BrdU (10 µM, 1 hour, 37°C), then they were trypsinized, fixed and treated with DNase (300 µg/ml, 1 hour, 37°C) before staining with anti-BrdU-FITC antibody and 7-AAD reagent. Cells were analyzed on a Becton Dickinson FACScan (fluorescence activated cell sorter), on FL1-H and FL3-H parameters for FITC and 7-AAD fluorescent dye respectively.

[1] = test system: MDA-MB-435 tumor-cell xenografts; experiment: MDA-MB-435 xenograft in nude mice; type: in vivo, human; details: HB-19 5 mg/kg, intraperitoneal, 3 times/week, 8 weeks, n = 10
Experimental: Figure 8 HB-19 inhibits tumor growth in the nude mice. (A) HB-19 inhibits the growth of MDA-MB-231 tumor-cell xenografts. Cells (2×10^6) were injected subcutaneously into the right flank of female nude mice. Two weeks later, mice with a palpable tumor of approximately 40 mm^3 in volume were randomly separated into three groups (n = 5) and were given peritumoral injections 3 times/week of 0.1 ml PBS alone (Control), HB-19 (5 mg/kg), or Tamoxifen (Tmx) 10 mg/kg) for 6 weeks. (B) HB-19 inhibits the growth of MDA-MB-435 tumor-cell xenografts. Cells (1×10^6) were injected in the mammary fat pad of female nude mice. Two weeks later, mice with a palpable tumor were randomly separated into three groups (n = 10) and were given intraperitoneal injections 3 times/week of 0.1 ml PBS alone (Control), HB-19 (5 mg/kg), or 5-fluouracil (5-FU, 40 mg/kg) for 8 weeks. At the end of each experiment (in A and B), mice were sacrificed and the tumors were excised and weighed. The results are presented as the mean weight ±standard deviation (±S.D.) obtained from the number of mice in each group. (C, D) Inhibition of tumor development in mice treated by intraperitoneal (i.p.) and subcutaneous (s.c.) administration of HB-19. MDA-MB-231 tumor bearing mice in three groups (n = 10) were treated with HB-19 (10 mg/kg) by i.p. or s.c. injections, 3 times/week for 28 days. […]

[2] = test system: cells (surface nucleolin); experiment: Internalization of nucleolin ligands (quoted); type: cell-based; details: HB-19, 20°C; compared with GROs
athymic nude mice = details: mouse, in vivo
Experimental: Inhibitory action of HB-19 was tested against established human breast carcinoma xenografts in the athymic nude mice. For this purpose, mice were inoculated subcutaneously with MDA-MB-231 or MDA-MB-435 cells that proliferate into palpable tumors in 2 weeks. Tumor bearing mice were then treated with HB-19 (Figure 8A, B) or control antitumoral reagents such as tamoxifen and 5-fluouracil (5-FU). The mice were administered 3 times per week with various drugs, during which time tumor-volume was measured by a caliper every third or fourth day. At the end of experiment, tumor-bearing mice were sacrificed, blood was collected for analysis, and the liver, lungs and spleen were removed for histological analysis.
4-week old female athymic nude Mice (Janvier, Le Genest St Isle, France) were injected subcutaneously in the right flank (MDA-MB-231) or in the mammary fat pad (MDA-MB-435) in 0.1 ml PBS. When the tumor reached about 40 mm^3, the mice were separated randomly in several groups. Administration of HB-19 in PBS (5 mg/kg body weight) was either by intraperitoneal, subcutaneous or peritumoral injections three times per week. Tumor volume was measured along two major axes with calipers. Tumor volume (mm^3) was calculated as follows: V = 4/3×π×R1 ^2×R2, where R1 is radius 1, R2 is radius 2 and R1<R2.

pseudo-tripeptide Lysψ(CH2N)-Pro-Arg coupled to a template (H2NLys-Lys-Lys-Gly-Pro-Lys-Glu-Lys-AhxCONH2) [HB-19]
prevention of HB-19/Btn binding (HUVECs): prevented by the excess HB-19 | colony formation (PC3 cells): reduced markedly | decrease of cells in S phase (MDA-MB-231 cells): 62% | increase of cells in G1 phase (MDA-MB-231 cells): 9% | increase of cells in G2/M phase (MDA-MB-231 cells): 31% | inhibition of tumor growth [1]: 57% | localization at 20°C [2]: remains aggregated at the plasma membrane | effect on body weight and blood cell counts (athymic nude mice): no effect on body weight and on blood cell counts | effect on tissues at autopsy (athymic nude mice): no apparent effect on various tissues compared to control mice
